Like-named read-outs stand apart in the source and are kept apart here. No end group written: not given here.

The nature of assay [1]: Neutralization of endotoxin purposely added to plasma or buffer, kinetic chromogenic Limulus amebocyte lysate endotoxin assay. To be noted: for neutralization (binding) of endotoxin, in words: endotoxin added to plasma or aqueous samples; for Percent binding of Endotoxin: plasma, endotoxin 10 ng/mL. The assay is classed as biochemical. The method, then: The presence of endotoxin may routinely be measured using, for example, a kinetic chromogenic method. The assay involves a complete set of enzyme reactions which are described in detail in the following publications, each of which is hereby incorporated by reference.
In the course of the endotoxin assay, a calibration curve is prepared which is a plot of logarithm of the time of the kinetic endpoint of a chromogenic reaction versus the logarithm of known concentrations of endotoxin.
Thus, if endotoxin is added to aqueous buffer solutions or to plasma the amount of endotoxin present can be assayed by reference to the calibration curve. Similarly, if plasma, plasma fractions, patient samples or any test solution contains an endogenous level of endotoxin, the level can also be determined by reference to the calibration curve.
Endotoxin was purposely added to plasma to a final concentration of 10 ng/mL and increasing concentrations of the compounds Arg Helix #2 (a monomeric cationic helix peptide), Bis Arg Helix #2 (which contains 2 copies of Arg Helix #2), Tris Arg Helix #3 (which contains 3 copies of Arg Helix #3), Tetra Arg Helix #3 (4 copies of Arg Helix #3) or Tris Arg Helix #3 (constrained) (3 copies of Arg Helix #3 constrained by design to present a “binding groove” within the molecule) were added to these same samples (Table 1).

The conditions of assay [2]: cited from earlier work.

As for protamine [reference compound], the “neutralization (binding) of endotoxin, in words” value in assay [1] is given as “ineffective in neutralizing endotoxin”.
Consider “Bis Arg Helix #2: contains 2 copies of Arg Helix #2; SEQ ID NOS.:2 and 3, FIG. 1A (chain 1 ARAARRAARAAARRARAEA; chain 2 AEARARRAAARAARRAARA; also: two copies linked, linkage not given here)”, for which, in assay [1], the “neutralization (binding) of endotoxin, in words” value was “very little neutralization (binding) activity”. Moreover, the “Percent binding of Endotoxin” value is reported as 0.00% in assay [1] (peptide concentration 0.01 mg/mL), 24.7% in assay [1] (peptide concentration 0.1 mg/mL), 51.2% in assay [1] (peptide concentration 0.5 mg/mL) and 63.5% in assay [1] (peptide concentration 1.0 mg/mL).

B1: rHBP: recombinant heparin binding protein; formerly known as cationic antimicrobial protein or bactericidal/permeability increasing factor (protein, UniProt P20160 27-248, looked up)
Azurocidin: IVGGRKARPRQFPFLASIQNQGRHFCGGALIHARFVMTAASCFQSQNPGVSTVVLGAYDLRRRERQSRQTFSISSMSENGYDPQQNLNDLMLLQLDREANLTSSVTILPLPLQNATVEAGTRCQVAGWGSQRSGGRLSRFPRFVNVTVTPEDQCRPNNVCTGVLTRRGGICNGDGGTPLVCEGLAHGVASFSLGPCGRGPDFFTRVALFRDWIDGVLNNPGP
As for B1, the Survival entry in assay [2] (animals treated with cefoxitin and rHBP, compared to controls) is “increased significantly”; in assay [2] (mice pretreated well in advance), “increased”; in assay [2] (treated at the time of ligation and puncture, versus control group), “not significantly different”.

Source of the values: US6756206B2, “Adsorption and removal of endotoxin from physiological fluids using cationic helix peptides” (Commonwealth Biotechnologies, Inc., priority 1998, dated 2004).
